Results: US9562031B1, “Phenethyldihydrobenzodioxolones and methods of use” (Sequoia Sciences, Inc., priority 2015, dated 2017)
Like-named read-outs stand apart in the source and are kept apart here.

Experiments:
[1] = tested on: NCI-H460 (large cell lung carcinoma) cells; assay: antiproliferation assay (72 h, CELLTITER 96), NCI-H460; assay type: cell-based, human; details: Homo sapiens, read-out: NCI-H460 IC50
Description: (§1) All of the compounds shown in Table 3-Table 8 below were prepared synthetically as described in EXAMPLE I. The compounds were tested for their ability to inhibit the proliferation of human cancer cells in vitro as described in the following paragraph. Table 3-Table 8 list the IC50 values in the M14 and NCI-H460 human cancer cell lines. IC50 is defined as the concentration of compound necessary to achieve 50% of the maximum growth inhibition.
(§2) For the antiproliferation assay, NCI-H460 (large cell lung carcinoma) or M14 (amelanotic melanoma) cells were grown in RPMI-1640 with 10% FBS supplemented with L-glutamine and HEPES. Cells were seeded into 96-well plates at 5×10^2 to 5×10^4 cells/well and allowed to adhere overnight; the medium was then removed. A stock solution of test compound in DMSO was diluted in medium to generate a series of working solutions. Aliquots (100 μl) of the working solutions were then added to the appropriate test wells to expose cells to the final concentrations of compound in a total volume of 100 μl. Seven different concentrations were tested, with 2-5 wells per concentration. Camptothecin was used as a positive control; wells containing vehicle without compound were used as negative controls. Plates were kept for 72 h in a 37° C., 5% CO2 incubator. After incubation, viable cells were detected with the CELLTITER 96 AQueous Non-Radioactive Cell Proliferation Assay (Promega), and IC50 values were determined using GraphPad Prism 5 software.

[2] = tested on: M14 (amelanotic melanoma) cells; assay: antiproliferation assay (72 h, CELLTITER 96), M14; assay type: cell-based, human; details: Homo sapiens
Description: as §1, §2

| IC50 ([1]; NCI-H460, Table 7) | IC50 ([2]; Table 7) | Structure (SMILES) | also measured |
| --- | --- | --- | --- |
| 73 nM | 200 nM | C#CC[C@H]1C[C@]2([C@@H](C)Cc3ccc(OC)cc3F)OCOC2=CC1=O [Compound 62, (6S,7aR)-7a-((S)-1-(2-fluoro-4-methoxyphenyl)propan-2-yl)-6-(prop-2-yn-1-yl)-7,7a-dihydrobenzo[d][1,3]dioxol-5(6H)-one] |  |
| 250 nM | 210 nM | C/C=C/C[C@H]1C[C@]2([C@@H](C)Cc3ccc(OC)cc3F)OCOC2=CC1=O [Compound 67, (6S,7aR)-6-((E)-but-2-en-1-yl)-7a-((S)-1-(2-fluoro-4-methoxyphenyl)propan-2-yl)-7,7a-dihydrobenzo[d][1,3]dioxol-5(6H)-one] |  |
| 820 nM | 860 nM | COc1ccc(C[C@H](C)[C@]23C[C@H](CC=C(F)F)C(=O)C=C2OCO3)c(F)c1 [Compound 68, (6S,7aR)-6-(3,3-difluoroallyl)-7a-((S)-1-(2-fluoro-4-methoxyphenyl)propan-2-yl)-7,7a-dihydrobenzo[d][1,3]dioxol-5(6H)-one] |  |

Further lines, the compound ahead of its results:

| Structure (SMILES) | IC50 ([1]; NCI-H460, Table 7) | IC50 ([2]; Table 7) | also measured |
| --- | --- | --- | --- |
| C=CC[C@H]1C[C@]2([C@H](C)Cc3ccc(N(C)C)c(F)c3)OCOC2=CC1=O [Compound 46, (6S,7aR)-6-allyl-7a-((R)-1-(4-(dimethylamino)-3-fluorophenyl)propan-2-yl)-7,7a-dihydrobenzo[d][1,3]dioxol-5(6H)-one] |  |  | IC50 ([1]; NCI-H460, Table 5): 1400 nM; IC50 ([2]; Table 5): 640 nM |
| C=CC[C@H]1C[C@]2([C@H](C)Cc3cc(F)c(N(C)C)cc3F)OCOC2=CC1=O [Compound 47, (6S,7aR)-6-allyl-7a-((R)-1-(4-(dimethylamino)-2,5-difluorophenyl)propan-2-yl)-7,7a-dihydrobenzo[d][1,3]dioxol-5(6H)-one] |  |  | IC50 ([1]; NCI-H460, Table 5): 330 nM; IC50 ([2]; Table 5): 75 nM |
| C=CC[C@H]1C[C@]2([C@@H](C)Cc3cc(F)c(N(C)C)cc3F)OCOC2=CC1=O [Compound 48, (6S,7aR)-6-allyl-7a-((S)-1-(4-(dimethylamino)-2,5-difluorophenyl)propan-2-yl)-7,7a-dihydrobenzo[d][1,3]dioxol-5(6H)-one] |  |  | IC50 ([1]; NCI-H460, Table 5): 330 nM; IC50 ([2]; Table 5): 70 nM |
| C=CC[C@H]1C[C@]2([C@@H](C)Cc3ccccc3)OCOC2=CC1=O [Compound 49] |  |  | IC50 ([1]; NCI-H460, Table 6): 9700 nM; IC50 ([2]; Table 6): 5100 nM |
| C=CC[C@H]1C[C@]2([C@@H](C)Cc3cccc(OC)c3)OCOC2=CC1=O [Compound 50, (6S,7aR)-6-allyl-7a-((S)-1-(3-methoxyphenyl)propan-2-yl)-7,7a-dihydrobenzo[d][1,3]dioxol-5(6H)-one] |  |  | IC50 ([1]; NCI-H460, Table 6): 10600 nM; IC50 ([2]; Table 6): 8800 nM |
| C=CC[C@H]1C[C@]2([C@H](C)Cc3ccc(OC)cc3C)OCOC2=CC1=O [Compound 51, (6S,7aR)-6-allyl-7a-((R)-1-(4-methoxy-2-methylphenyl)propan-2-yl)-7,7a-dihydrobenzo[d][1,3]dioxol-5(6H)-one] |  |  | IC50 ([1]; NCI-H460, Table 6): 780 nM; IC50 ([2]; Table 6): 280 nM |
| C=CC[C@H]1C[C@]2(C(C)Cc3ccc(OC)cc3OC)OCOC2=CC1=O (stereo partly drawn) [Compound 52, (6S,7aR)-6-allyl-7a-(1-(2,4-dimethoxyphenyl)propan-2-yl)-7,7a-dihydrobenzo[d][1,3]dioxol-5(6H)-one] |  |  | IC50 ([1]; NCI-H460, Table 6): 15000 nM; IC50 ([2]; Table 6): 15000 nM |
| C=CC[C@H]1C[C@]2([C@@H](C)Cc3ccc(OC)cc3OC(C)=O)OCOC2=CC1=O [Compound 53, 2-((S)-2-((3aR,5S)-5-allyl-6-oxo-3a,4,5,6-tetrahydrobenzo[d][1,3]dioxol-3a-yl)propyl)-5-methoxyphenyl acetate] |  |  | IC50 ([1]; NCI-H460, Table 6): 2300 nM; IC50 ([2]; Table 6): 270 nM |
| C=CC[C@H]1C[C@]2([C@H](C)Cc3ccc(OC)cc3Cl)OCOC2=CC1=O [Compound 54, (6S,7aR)-6-allyl-7a-((R)-1-(2-chloro-4-methoxyphenyl)propan-2-yl)-7,7a-dihydrobenzo[d][1,3]dioxol-5(6H)-one] |  |  | IC50 ([1]; NCI-H460, Table 6): 320 nM; IC50 ([2]; Table 6): 45 nM |
| C=CC[C@H]1C[C@]2(C(C)Cc3cc(F)c(OC)c(F)c3)OCOC2=CC1=O (stereo partly drawn) [Compound 55, (6S,7aR)-6-allyl-7a-(1-(3,5-difluoro-4-methoxyphenyl)propan-2-yl)-7,7a-dihydrobenzo[d][1,3]dioxol-5(6H)-one] |  |  | IC50 ([1]; NCI-H460, Table 6): 3800 nM; IC50 ([2]; Table 6): 3300 nM |
| COc1cc(F)c(CC(C)[C@]23C[C@H](C)C(=O)C=C2OCO3)cc1F (stereo partly drawn) [Compound 56, (6S,7aR)-7a-(1-(2,5-difluoro-4-methoxyphenyl)propan-2-yl)-6-methyl-7,7a-dihydrobenzo[d][1,3]dioxol-5(6H)-one] | 430 nM | 140 nM |  |
| CC[C@H]1C[C@]2([C@@H](C)Cc3cc(F)c(OC)cc3F)OCOC2=CC1=O [Compound 57] | 200 nM | 140 nM |  |
| CC[C@H]1C[C@]2([C@H](C)Cc3cc(F)c(OC)cc3F)OCOC2=CC1=O [Compound 58] | 440 nM | 290 nM |  |
| CCC[C@H]1C[C@]2([C@@H](C)Cc3cc(O)c(OC)cc3F)OCOC2=CC1=O [Compound 59] | 170 nM | 58 nM |  |
| CCC[C@H]1C[C@]2([C@H](C)Cc3cc(O)c(OC)cc3F)OCOC2=CC1=O [Compound 60] | 67 nM | 5.9 nM |  |
| C=C(F)C[C@H]1C[C@]2([C@@H](C)Cc3cc(F)c(OC)cc3F)OCOC2=CC1=O [Compound 64, (6R,7aR)-7a-((S)-1-(2,5-difluoro-4-methoxyphenyl)propan-2-yl)-6-(2-fluoroallyl)-7,7a-dihydrobenzo[d][1,3]dioxol-5(6H)-one] | 220 nM | 140 nM |  |
| COC[C@H]1C[C@]2([C@@H](C)Cc3cc(O)c(OC)cc3F)OCOC2=CC1=O [Compound 65, (6R,7aR)-7a-((S)-1-(2-fluoro-5-hydroxy-4-methoxyphenyl)propan-2-yl)-6-(methoxymethyl)-7,7a-dihydrobenzo[d][1,3]dioxol-5(6H)-one] | 1200 nM | 640 nM |  |
| COc1cc(F)c(C[C@H](C)[C@]23C[C@H](Cc4ccccc4)C(=O)C=C2OCO3)cc1O [Compound 66, (6S,7aR)-6-benzyl-7a-((S)-1-(2-fluoro-5-hydroxy-4-methoxyphenyl)propan-2-yl)-7,7a-dihydrobenzo[d][1,3]dioxol-5(6H)-one] | 2600 nM | 1600 nM |  |
| COc1cc(F)c(C[C@H](C)[C@]23C[C@H](CCCF)C(=O)C=C2OCO3)cc1O [Compound 69, (6S,7aR)-7a-((S)-1-(2-fluoro-5-hydroxy-4-methoxyphenyl)propan-2-yl)-6-(3-fluoropropyl)-7,7a-dihydrobenzo[d][1,3]dioxol-5(6H)-one] | 510 nM | 570 nM |  |
| CCC[C@H]1C[C@]2([C@@H](C)Cc3ccc(OC)c(OC)c3)OCOC2=CC1=O [Compound 70, (6S,7aR)-7a-((S)-1-(3,4-dimethoxyphenyl)propan-2-yl)-6-propyl-7,7a-dihydrobenzo[d][1,3]dioxol-5(6H)-one] | > 4000 nM | 7400 nM |  |
| C=CC[C@H]1C[C@]2(CCc3ccc(OC)c(OC)c3)OCOC2=CC1=O [Compound 72, (6S,7aS)-6-allyl-7a-(3,4-dimethoxyphenethyl)-7,7a-dihydrobenzo[d][1,3]dioxol-5(6H)-one] |  |  | IC50 ([1]; NCI-H460, Table 8): 3200 nM; IC50 ([2]; Table 8): 2000 nM |
| C=CC[C@H]1C[C@]2([C@@H](C)Cc3ccc(OC)c(OC(=O)N(C)C)c3)OCOC2=CC1=O [Compound 73, 5-((S)-2-((3aR,5S)-5-allyl-6-oxo-3a,4,5,6-tetrahydrobenzo[d][1,3]dioxol-3a-yl)propyl)-2-methoxyphenyl dimethylcarbamate] |  |  | IC50 ([1]; NCI-H460, Table 4): > 20000 nM; IC50 ([2]; Table 4): > 20000 nM |
| C/C=C/[C@H]1C[C@]2([C@H](C)Cc3cc(O)c(OC)cc3F)OCOC2=CC1=O [Compound 74, (6R,7aR)-7a-((R)-1-(2-fluoro-5-hydroxy-4-methoxyphenyl)propan-2-yl)-6-((E)-prop-1-en-1-yl)-7,7a-dihydrobenzo[d][1,3]dioxol-5(6H)-one] | 290 nM | 120 nM |  |
| C/C=C/[C@H]1C[C@]2([C@@H](C)Cc3cc(O)c(OC)cc3F)OCOC2=CC1=O [Compound 75, (6R,7aR)-7a-((S)-1-(2-fluoro-5-hydroxy-4-methoxyphenyl)propan-2-yl)-6-((E)-prop-1-en-1-yl)-7,7a-dihydrobenzo[d][1,3]dioxol-5 (6H)-one] | 860 nM | 510 nM |  |
| COc1cc(F)c(C[C@H](C)[C@]23C[C@H](CCSC)C(=O)C=C2OCO3)cc1O [Compound 76, (6R,7aR)-7a-((S)-1-(2-fluoro-5-hydroxy-4-methoxyphenyl)propan-2-yl)-6-(2-(methylthio)ethyl)-7,7a-dihydrobenzo[d][1,3]dioxol-5(6H)-one] | 450 nM | 300 nM |  |
| CC[C@H](C)[C@H]1C[C@]2([C@@H](C)Cc3cc(O)c(OC)cc3F)OCOC2=CC1=O [Compound 77, (6R,7aR)-6-((S)-sec-butyl)-7a-((S)-1-(2-fluoro-5-hydroxy-4-methoxyphenyl)propan-2-yl)-7,7a-dihydrobenzo[d][1,3]dioxol-5(6H)-one] | 550 nM | 110 nM |  |
